One experiment has as its system cardiovascular system. The settings on record: in vivo; cited from earlier work.
The test system of experiment [1] is activated human mesangial cells. Nature of the experiment: in vitro inhibition of activated (IL-1 and IL-6) human mesangial cells, [3H]-thymidine incorporation. Format: cell-based. The settings on record: Mesangial cell, n = 3, read-out: in vitro inhibitory action. From the text: In terms of activation of mesangial cells, [^3 H]-thymidine incorporation method is used as an index of DNA synthesis. Cultured human mesangial cells are first activated by exposing them to IL-1 and IL-6. The decrease in [^3 H]-thymidine incorporation after exposure to various fractions and compounds in Cordyceps sinensis was used as the in vitro screening method for identifying potential substances which are capable of inhibiting the proliferation of activated human mesangial cells.
Two methods of investigation (in vitro and in vivo) were adopted for the invention discussed in the patent application. One of these utilizes in vitro suppression of activated human mesangial cells as its model: the activity index used is the degree to which activation by interleukins 1 and 6 is suppressed by treatment with the fractions and purified compound H1-A of Cordyceps sinensis. Isotope-labeled [^3 H]-thymidine converted into [^3 H]-thymidine incorporation is the basis by which the degree of activation of mesangial cells is determined (please see Tables 1-1 to 1-5).
(In general: Dividing cells build labelled thymidine or BrdU into new DNA.)

Consider `Nc1ncnc2c1ncn2[C@@H]1O[C@H](CO)[C@@H](O)[C@H]1O` [Adenosine], for which, in the experiment with cardiovascular system, the cardiovascular effect result was “acts to relax vascular smooth muscle and causes vasodilatation”.

Turning to `CC[C@H](C)C(=O)O[C@H]1C[C@@H](C)C=C2C=C[C@H](C)[C@H](CC[C@@H]3C[C@@H](O)CC(=O)O3)[C@H]21` [Lovastatin, lovastatin], the inhibition at 20 µM in experiment [1] (Table 1-5, 20 μM) was 19.8 ± 2%. Besides, the inhibition at 50 µM in experiment [1] (Table 1-5, 50 μM) is 37.1 ± 4.3%. Further, in experiment [1] (Table 1-5, 75 μM), the inhibition at 75 µM turned out to be 60.9 ± 3.8%. In addition, the inhibition at 100 µM in experiment [1] (Table 1-5, 100 μM) came out at 73 ± 4%.

The values above are taken from US5582828A, “Active fractions of Cordyceps sinensis and method of isolation thereof” (Lin; Ching-Yuang, priority 1995, dated 1996).
